Measured values: patent publication US10251395B2, “Substituted furano-/thienocycloalkylamino-2-pyrimidine derivatives and use thereof for controlling undesired plant growth” (Bayer CropScience Aktiengesellschaft, priority 2015, dated 2019)

Columns and labels:
Ipomoea purpurea = test: Post-emergence herbicidal effect; assay type: in vivo; details: 320 g/ha, assessed visually after about 3 weeks vs untreated controls
Outline: (§1)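 Greenhouse weeds grown in sandy loam were sprayed at the one-leaf stage, 2–3 weeks after sowing, with WP or EC formulations in 600–800 L/ha water plus 0.2% wetting agent. Damage was scored visually after about 3 weeks as percent activity relative to untreated controls, where 100% means the plants died.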

Veronica persica [1] = test: Post-emergence herbicidal effect; assay type: in vivo; details: assessed visually after about 3 weeks vs untreated controls
Outline: as §1

Stellaria media [2] = test: Post-emergence herbicidal effect; assay type: in vivo; details: assessed visually after about 3 weeks vs untreated controls
Outline: as §1

Echinochloa crus-galli [3] = test: Post-emergence herbicidal effect; assay type: in vivo; details: assessed visually after about 3 weeks vs untreated controls
Outline: as §1

Amaranthus retroflexus [4] = test: Post-emergence herbicidal effect; assay type: in vivo; details: assessed visually after about 3 weeks vs untreated controls
Outline: as §1

Viola tricolor [5] = test: Post-emergence herbicidal effect; assay type: in vivo; details: assessed visually after about 3 weeks vs untreated controls
Outline: as §1

Abutilon theophrasti [6] = test: Pre-emergence herbicidal effect; assay type: in vivo; details: Dosage 320 g/ha, scored visually after 3 weeks
Outline: (§2)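 Visual damage score in % after 3 weeks in the greenhouse, relative to untreated controls (0% like control, 100% plants dead). Compounds were sprayed pre-emergence onto covering soil over seeds sown in sandy loam, as WP or EC in water at 600 to 800 L/ha plus 0.2% wetting agent.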

Polygonum convolvulus [7] = test: Pre-emergence herbicidal effect; assay type: in vivo; details: Dosage 320 g/ha, scored visually after 3 weeks
Outline: as §2

Setaria viridis [8] = test: Pre-emergence herbicidal effect; assay type: in vivo; details: scored visually after 3 weeks
Outline: as §2

Veronica persica [9] = test: Pre-emergence herbicidal effect; assay type: in vivo; details: scored visually after 3 weeks
Outline: as §2

Stellaria media [10] = test: Pre-emergence herbicidal effect; assay type: in vivo; details: scored visually after 3 weeks
Outline: as §2

Echinochloa crus-galli [11] = test: Pre-emergence herbicidal effect; assay type: in vivo; details: scored visually after 3 weeks
Outline: as §2

Matricaria inodora [12] = test: Pre-emergence herbicidal effect; assay type: in vivo; details: scored visually after 3 weeks
Outline: as §2

Amaranthus retroflexus [13] = test: Pre-emergence herbicidal effect; assay type: in vivo; details: scored visually after 3 weeks
Outline: as §2

Viola tricolor [14] = test: Pre-emergence herbicidal effect; assay type: in vivo; details: scored visually after 3 weeks
Outline: as §2

logP (HCOOH) = assay type: physicochemical; details: HCOOH
Excerpt: Table 2 (physicochemical characterization of selected synthesis examples)

Polygonum convolvulus [15] = test: Post-emergence herbicidal effect; assay type: in vivo; details: assessed visually after about 3 weeks vs untreated controls
Outline: as §1

Setaria viridis [16] = test: Post-emergence herbicidal effect; assay type: in vivo; details: 320 g/ha, assessed visually after about 3 weeks vs untreated controls
Outline: as §1

Lolium multiflorum [17] = test: Post-emergence herbicidal effect; assay type: in vivo; details: 320 g/ha, assessed visually after about 3 weeks vs untreated controls
Outline: as §1

Alopecurus myosuroides = test: Pre-emergence herbicidal effect; assay type: in vivo; details: scored visually after 3 weeks
Outline: as §2

Lolium multiflorum [18] = test: Pre-emergence herbicidal effect; assay type: in vivo; details: scored visually after 3 weeks
Outline: as §2

Abutilon theophrasti [19] = test: Post-emergence herbicidal effect; assay type: in vivo; details: assessed visually after about 3 weeks vs untreated controls
Outline: as §1

Matricaria inodora [20] = test: Post-emergence herbicidal effect; assay type: in vivo; details: assessed visually after about 3 weeks vs untreated controls
Outline: as §1

Avena fatua = test: Pre-emergence herbicidal effect; assay type: in vivo; details: scored visually after 3 weeks
Outline: as §2

Row | SMILES | post-emergence efficacy PHBPU (Ipomoea purpurea) [%] | post-emergence efficacy STEME (Stellaria media [2]; 320 g/ha) [%] | post-emergence efficacy ECHCG (Echinochloa crus-galli [3]; 320 g/ha) [%] | post-emergence efficacy AMARE (Amaranthus retroflexus [4]; 320 g/ha) [%] | post-emergence efficacy VIOTR (Viola tricolor [5]; 320 g/ha) [%] | POLCO pre-emergence efficacy (herbicidal activity) (Polygonum convolvulus [7]) [%] | SETVI pre-emergence efficacy (herbicidal activity) (Setaria viridis [8]; Dosage 320 g/ha) [%] | VERPE pre-emergence efficacy (herbicidal activity) (Veronica persica [9]; Dosage 80 g/ha) [%] | VERPE pre-emergence efficacy (herbicidal activity) (Veronica persica [9]; Dosage 320 g/ha) [%] | STEME pre-emergence efficacy (herbicidal activity) (Stellaria media [10]; Dosage 80 g/ha) [%] | STEME pre-emergence efficacy (herbicidal activity) (Stellaria media [10]; Dosage 320 g/ha) [%] | ECHCG pre-emergence efficacy (herbicidal activity) (Echinochloa crus-galli [11]; Dosage 80 g/ha) [%] | ECHCG pre-emergence efficacy (herbicidal activity) (Echinochloa crus-galli [11]; Dosage 320 g/ha) [%] | MATIN pre-emergence efficacy (herbicidal activity) (Matricaria inodora [12]; Dosage 80 g/ha) [%] | MATIN pre-emergence efficacy (herbicidal activity) (Matricaria inodora [12]; Dosage 320 g/ha) [%] | AMARE pre-emergence efficacy (herbicidal activity) (Amaranthus retroflexus [13]; Dosage 80 g/ha) [%] | AMARE pre-emergence efficacy (herbicidal activity) (Amaranthus retroflexus [13]; Dosage 320 g/ha) [%] | VIOTR pre-emergence efficacy (herbicidal activity) (Viola tricolor [14]; Dosage 80 g/ha) [%] | VIOTR pre-emergence efficacy (herbicidal activity) (Viola tricolor [14]; Dosage 320 g/ha) [%] | logP (HCOOH) (logP (HCOOH)) | further results
1 | CS(=O)(=O)c1cnc(NC2CCCc3sc(Cl)cc32)nc1N (racemic) [compound 42] | 80 | 100 | 100 | 90 | 100 | 80 | 100 | 100 | 100 | 100 | 100 | 100 | 100 | 100 | 100 | 100 | 100 | 100 | 100 | oily; logP (HCOOH): 2.33; 1H NMR (CDCl3, 400 MHZ, δ in ppm): 1.80 (m, 1H, 1H of | post-emergence efficacy VERPE (Veronica persica [1]; 80 g/ha): 90%; post-emergence efficacy VERPE (Veronica persica [1]; 320 g/ha): 100%; post-emergence efficacy STEME (Stellaria media [2]; 80 g/ha): 90%; post-emergence efficacy VIOTR (Viola tricolor [5]; 80 g/ha): 90%; ABUTH pre-emergence efficacy (herbicidal activity) (Abutilon theophrasti [6]): 100%; SETVI pre-emergence efficacy (herbicidal activity) (Setaria viridis [8]; Dosage 80 g/ha): 100%
2 | CS(=O)(=O)c1cnc(NC2CCCc3cc(Cl)sc32)nc1N (racemic) [compound 53] | 90 | 100 | 90 | 100 | 100 | 90 | 100 | 100 | 100 | 80 | 100 | 100 | 100 | 100 | 100 | 100 | 100 | 100 | 100 | solid; logP (HCOOH): 2.41; 1H NMR (CDCl3, 400 MHZ, δ in ppm): 1.75-2.00 (m, | post-emergence efficacy POLCO (Polygonum convolvulus [15]; 80 g/ha): 80%; post-emergence efficacy POLCO (Polygonum convolvulus [15]; 320 g/ha): 90%; post-emergence efficacy SETVI (Setaria viridis [16]): 100%; post-emergence efficacy VERPE (Veronica persica [1]; 80 g/ha): 90%; post-emergence efficacy VERPE (Veronica persica [1]; 320 g/ha): 90%; post-emergence efficacy STEME (Stellaria media [2]; 80 g/ha): 100%; post-emergence efficacy ECHCG (Echinochloa crus-galli [3]; 80 g/ha): 80%; post-emergence efficacy AMARE (Amaranthus retroflexus [4]; 80 g/ha): 90%; post-emergence efficacy VIOTR (Viola tricolor [5]; 80 g/ha): 90%
3 | Cc1cc2c(o1)CCCC2Nc1ncc(S(C)(=O)=O)c(N)n1 (racemic) [compound 62] | – | 90 | 40 | 90 | 100 | – | 80 | – | 90 | 90 | 100 | – | 80 | 80 | 100 | – | 100 | 90 | 100 | oily; logP (HCOOH): 1.78; 1H NMR (CDCl3, 400 MHZ, δ in ppm): 1.70-2.00 (m, 4H, | post-emergence efficacy LOLMU (Lolium multiflorum [17]): 80%; post-emergence efficacy AMARE (Amaranthus retroflexus [4]; 80 g/ha): 80%; ABUTH pre-emergence efficacy (herbicidal activity) (Abutilon theophrasti [6]): 90%; ALOMY pre-emergence efficacy (herbicidal activity) (Alopecurus myosuroides; Dosage 320 g/ha): 60%; LOLMU pre-emergence efficacy (herbicidal activity) (Lolium multiflorum [18]; Dosage 320 g/ha): 50%
4 | CC(=O)c1cnc(NC2CCCc3sc(C)cc32)nc1N (racemic) [compound 150] | 90 | 100 | 80 | 90 | 90 | 100 | 100 | 70 | 100 | 100 | 100 | 90 | 100 | – | – | 100 | 100 | 100 | 100 | oily; logP (HCOOH): 1.51; 1H NMR (CDCl3, 400 MHZ, δ in ppm): 1.85 (m, 3H, 3H of | post-emergence efficacy ABUTH (Abutilon theophrasti [19]; 80 g/ha): 80%; post-emergence efficacy ABUTH (Abutilon theophrasti [19]; 320 g/ha): 80%; post-emergence efficacy SETVI (Setaria viridis [16]): 90%; post-emergence efficacy VERPE (Veronica persica [1]; 80 g/ha): 100%; post-emergence efficacy VERPE (Veronica persica [1]; 320 g/ha): 100%; post-emergence efficacy STEME (Stellaria media [2]; 80 g/ha): 80%; post-emergence efficacy MATIN (Matricaria inodora [20]; 80 g/ha): 80%; post-emergence efficacy MATIN (Matricaria inodora [20]; 320 g/ha): 90%; post-emergence efficacy LOLMU (Lolium multiflorum [17]): 90%; post-emergence efficacy AMARE (Amaranthus retroflexus [4]; 80 g/ha): 80%; post-emergence efficacy VIOTR (Viola tricolor [5]; 80 g/ha): 80%; ABUTH pre-emergence efficacy (herbicidal activity) (Abutilon theophrasti [6]): 70%; SETVI pre-emergence efficacy (herbicidal activity) (Setaria viridis [8]; Dosage 80 g/ha): 100%; ALOMY pre-emergence efficacy (herbicidal activity) (Alopecurus myosuroides; Dosage 80 g/ha): 90%; ALOMY pre-emergence efficacy (herbicidal activity) (Alopecurus myosuroides; Dosage 320 g/ha): 100%; LOLMU pre-emergence efficacy (herbicidal activity) (Lolium multiflorum [18]; Dosage 80 g/ha): 100%; LOLMU pre-emergence efficacy (herbicidal activity) (Lolium multiflorum [18]; Dosage 320 g/ha): 100%
5 | Nc1nc(NC2CCc3sccc32)ncc1C(F)(F)F (racemic) [compound 215] | – | – | – | – | – | 100 | 100 | 100 | 100 | 100 | 100 | 80 | 100 | 100 | 100 | 100 | 100 | 80 | 90 | – | AVEFA pre-emergence efficacy (herbicidal activity) (Avena fatua; Dosage 80 g/ha): 70%; AVEFA pre-emergence efficacy (herbicidal activity) (Avena fatua; Dosage 320 g/ha): 70%; SETVI pre-emergence efficacy (herbicidal activity) (Setaria viridis [8]; Dosage 80 g/ha): 90%; ALOMY pre-emergence efficacy (herbicidal activity) (Alopecurus myosuroides; Dosage 320 g/ha): 90%; LOLMU pre-emergence efficacy (herbicidal activity) (Lolium multiflorum [18]; Dosage 320 g/ha): 100%
